Consider one compound from patent US20110009335A1, “Anticancer Treatments” (priority 2008, published 2011).

Data set [1] deals with A498 human renal tumor xenograft. The data set can be described thus: Aplidine with sunitinib, A498 xenograft in athymic nude mice (Example 2). In kind it is in vivo. As to conditions: doses tested; sunitinib 40 mg/kg. How it is done: (§1) Female athymic nude mice (Harlan Sprague Dawley, Madison, Wis.) were utilized for all experiments. Mice were implanted with tumor fragments or a cell suspension when mice were 5 weeks of age. Animals were housed in ventilated rack caging, 5 mice per cage, with food and water ad libitum. The mice were acclimated for 1 week prior to being implanted with tumor fragments or cell suspensions.
(§2) Tumor measurements were determined as disclosed in Example 1.
(§3) Body weights were recorded on treatment days and when tumor sizes were measured. In those days wherein the two drugs were administered the same day, the combination therapy groups were treated by co-administering the two drugs at the same time, with no attempt to sequence the treatments.
(§4) Aplidine was provided in the form of vials of lyophilized aplidine powder which was reconstituted in Cremophor EL/ethanol/water (CEW) 15/15/70 to a concentration of 0.5 mg/ml. The aplidine solution in CEW was diluted in 0.9% Saline to the dosing formulation concentrations, being the final proportion of CEW of 0.18/0.18/0.84. […]
(§5) Tumor size measurements were recorded twice weekly from the treatment initiation until the termination of the study.
(§6) Mean, standard deviation and standard error of the mean were determined for tumor volume for all animal groups at all assessments. […]

The conditions of data set [2]: mouse, in vivo.
Experimental: Body weight effects were determined by comparing each mouse body weight measurement with the initial body weight (first day of treatment).
The NCI activity criterion of body weight loss >20% was used to gauge compound toxicity.
Body weight effects were determined by comparing each mouse body weight measurement with the initial body weight (first day of treatment). The NCI activity criterion of body weight loss >20% was used to gauge compound toxicity.
Data set [3] relates to MRI-H-121 human renal tumor xenograft. The data set can be described thus: Aplidine with sunitinib, MRI-H-121 xenograft in athymic nude mice (Example 2). It is filed as in vivo. As to conditions: doses and schedules tested. The method, then:
as §1, §2, §3, §4, §5, §6

For data set [4], the system named is CAKI-1 human renal tumor xenograft. The experiment in a line: Aplidine with sunitinib, CAKI-1 xenograft in athymic nude mice (Example 2). As to conditions: doses and schedules tested. In kind it is in vivo. The method, then: as §1
Cells from in vitro passage 4-20 were implanted SC into study mice: 5×10^6 cells/mouse in 0.2 ml 50% Matrigel/50% medium without antibiotics or serum, using a 23 G needle and 1 cc syringe. Bacterial cultures were performed on aliquots of the cells prepared for implantation.
as §2
Body weights were recorded on treatment days and when tumor sizes were measured. In those days wherein the two drugs were administered the same day, the combination therapy groups were treated by co-administering the two drugs at the same time, with no attempt to sequence the treatments. […]
as §5, §6

With `CCN(CC)CCNC(=O)c1c(C)[nH]c(/C=C2\C(=O)Nc3ccc(F)cc32)c1C` [sunitinib], the entries for the “antitumor activity as single agent (monotherapy)” value in data set [1], in data set [3] and in data set [4] were “did not reach the NCI criteria”, “refractory” and “inactive”, respectively. Also, the “effect on body weight / toxicity” value in data set [2] is listed as “did not cause a significant decline in mean body weight”.
